Measurements taken from patent US10322995B2, “Substituted cyano cycloalkyl penta-2,4-dienes, cyano cycloalkyl pent-2-en-4-ynes, cyano heterocyclyl penta-2,4-dienes and cyano heterocyclyl pent-2-en-4-ynes as active substances against abiotic plant stress” (BAYER CROPSCIENCE AKTIENGESELLSCHAFT, priority 2014, dated 2019).

What was measured:
[1] = test system: Triticum aestivum (TRZAS); experiment: In vivo analyses Part C: drought stress, appearance vs stressed control plants in categories (TRZAS); parameters: key: 0: no positive effect; 10: slight positive effect; 20: clear positive effect; 30: strong positive effect; details: appearance vs stressed control plants after recovery phase, efficacy range of 3-4 pots
Experimental: Seeds of monocotyledonous and dicotyledonous crop plants were sown in sandy loam in plastic or wood-fibre pots, covered with soil or sand and cultivated in a greenhouse under good growth conditions. The test plants were treated at the early leaf stage (BBCH10-BBCH13). To assure uniform water supply before commencement of stress, the potted plants were supplied with water by dam irrigation prior to substance application. The inventive compounds were first formulated as wettable powders (WP) or dissolved in a solvent mixture. The further dilution was effected with water supplemented with 0.2% wetting agent (e.g. agrotin). The finished spray liquor was sprayed onto the green parts of the plant at an equivalent water application rate of 600 I/ha. Substance application was followed immediately by stress treatment of the plants. For this purpose, the wood-fibre pots were transferred in plastic inserts in order to prevent them from subsequently drying out too quickly. Drought stress was induced by gradual drying out under the following conditions: “Day”: 14 hours with illumination at 26-30° C. “Night”: 10 hours without illumination at 18-20° C. The duration of the respective stress phases was guided mainly by the condition of the stressed control plants. It was ended (by re-irrigating and transfer to a greenhouse with good growth conditions) as soon as irreversible damage was observed on the stressed control plants. The end of the stress phase was followed by an about 4-7-day recovery phase, during which the plants were once again kept under good growth conditions in a greenhouse. The duration of the recovery phase was guided mainly by when the trial plants had attained a state which enabled visual scoring of potential effects, and was therefore variable. Once this juncture had been reached, the appearance of the plants treated with test substances was recorded in comparison to the stressed control plants by the following categories: [table] For each substance and dosage, 3-4 pots were treated and evaluated. TRZAS=Triticum aestivum

Zea mays (ZEAMX) = experiment: In vivo analyses Part A: drought stress, visual damage scoring, efficacy EF (ZEAMX); details: spray application 250 g/ha, efficacy = reduction in damage intensity
Experimental: Seeds of monocotyledonous and dicotyledonous crop plants were sown in sandy loam in wood-fibre pots, covered with soil or sand and cultivated in a greenhouse under good growth conditions. The test plants were treated at the early leaf stage (BBCH10-BBCH13). To assure uniform water supply before commencement of stress, the potted plants were supplied with water by dam irrigation prior to substance application. The inventive compounds, formulated in the form of wettable powders (WP), were sprayed onto the green parts of the plants as an aqueous suspension at an equivalent water application rate of 600 I/ha with addition of 0.2% wetting agent (e.g. agrotin). Substance application was followed immediately by stress treatment of the plants. For this purpose, the pots were transferred in plastic inserts in order to prevent them from subsequently drying out too quickly. Drought stress was induced by gradual drying out under the following conditions: “Day”: 14 hours with illumination at 26° C. “Night”: 10 hours without illumination at 18° C. The duration of the respective stress phases was guided mainly by the condition of the stressed control plants. […] Once this juncture was reached, the intensities of damage were scored visually in comparison to untreated, unstressed controls of the same age. The damage intensity was at first assessed in percent. […]

## CCC(C=CC(O)(c1ccccc1)C1(C#N)CC1)=CC(=O)O (racemic) [I.2-201]
[1]; dosage 25 g/ha
  Effect (TRZAS): 10

## CCOC(=O)/C=C(/C)C#CC(O)(C(C)C)C1(C#N)CC1 (stereo not drawn) [I.1-136]
Zea mays (ZEAMX)
  EF [%] (ZEAMX): >5%

## CC/C(C#CC(O)(C1CCC1)C1(C#N)CC1)=C/C(=O)OC (stereo not drawn) [I.1-648]
[1]; dosage 250 g/ha
  Effect (TRZAS): 10-20
